One block for each molecule: values may come before it.
Key:
[1] = test system: in vitro blood–brain barrier model (primary rat brain endothelial cells and pericytes on Transwell filters, glial-conditioned media); assay: Permeability assay through the in vitro BBB model; format: in vitro ADME; details: for Papp % (permeability coefficient compared to KYNA) / Papp% (permeability coefficient compared to sodium-fluorescein): 10 µM in top compartment; for Papp % (permeability coefficient compared to KYNA): N = 3, relative to KYNA; for Differences among permeability of KYNA, xanthurenic acid and 39B: 30 and 60 min; for Papp% (permeability coefficient compared to sodium-fluorescein): N = 2, relative to sodium-fluorescein; for Permeability compared to other analogues: p < 0.05; for BBB penetration compared to the other derivatives tested: conclusion
Method: Primary rat brain endothelial cells (RBECs) were isolated from 2-week old rats. Animals were sacrificed by cervical dislocation. Briefly, after removal of meninges, cerebral cortices were cut into small pieces and digested in two steps with 1 mg/mL collagenase type 2 and 1 mg/mL collagenase/dispase, followed by centrifugation on a percoll gradient (all from Sigma-Aldrich, St. Louis, MO, USA). Isolated microvessels were plated on fibronectin/collagen-coated dishes. Endothelial cells growing out of the microvessels were cultured in DMEM/F12 (Thermo Fisher Scientific, Waltham, MA, USA), 10% plasma-derived serum (PDS, First Link UK Ltd, Birmingham, UK) and growth factors. In the first two days, 4 µg/mL puromycin (Sigma-Aldrich) was added to remove contaminating cells. Cells were frozen in liquid nitrogen and passage 1 cells were further used. Rat brain pericytes were obtained from cerebral microvessels plated onto rat-tail collagen-coated dishes in PM medium (ScienCell, Carlsbad, CA, USA) complemented with 5% fetal bovine serum (FBS) and penicillin/streptomycin. Cells were split into new dishes, frozen in liquid nitrogen and passage 4 cells were further used. Glial cultures (>90% astrocytes) were prepared from newborn rats and cultured on poly-L-lysine-coated surfaces in DMEM (Thermo Fisher Scientific) and 10% FBS (Thermo Fisher Scientific). After reaching confluence, conditioned media was collected twice a week, centrifuged, sterile filtered and kept at −20 °C.
Pericytes were plated onto the backside of 12-well semipermeable filters (Corning-Costar Transwell Clear; pore size: 0.4 μm; 1.5 × 10^4 cells/filter). The next day, RBECs were plated onto the upper surface of the filters. […] TEER was followed until reaching plateau of 150–250 Ohm × cm^2.
Transwell filters containing endothelial cells and pericytes were removed from the CellZscope instrument. Filters were washed with Ringer-HEPES solution (pH = 7.4). […] The bottom compartment was loaded with Ringer-HEPES. Filters were placed to 37 °C and gentle shaking (110 rpm) was applied. Samples were taken from the basolateral side after 30 and 60 min. The concentrations of the samples were quantitated as described below and apparent permeability was calculated using the formula: Papp = dQ/(dT × A × C0), where dQ is the transported amount, dT is the incubation time, A is the surface of filter (1.12 cm^2), and C0 is the initial concentration. Statistical analysis was performed with ANOVA and Bonferroni’s post-hoc test.
The concentrations of the samples were quantitated with an Agilent 1100 HPLC system (Agilent Technologies, Santa Clara, CA, USA), consisting of a binary pump, a micro vacuum degasser, a thermostated column compartment, an automatic liquid sampler, a MS detector (LCMSD VL), and ChemStation data managing software. Chromatographic separations with the HPLC-MS system were performed on a Kinetex C18 column, 100 × 4.6 mm 2.6 μm particle size (Phenomenex, Torrance, CA, USA) with a mobile phase composition of 0.05% aqueous HCOOH/ACN = 90/10 (v/v), applying isocratic elution. The flow rate and the injection volume were 1 mL/min and 20 µL, respectively. The mass spectrometer was used in positive electrospray ionization mode. The drying gas temperature, drying gas flow rate, nebulizer pressure and capillary voltage were 350 °C, 13 L/min, 60 psi and 3500 V, respectively. […]

[2] = test system: c-fos and glutamate in NTC neurons; design: method as in PMID 28337634; details: systematic injection; cited from earlier work
NTC = test system: NTC; design: method as in PMID 27919017; details: cited from earlier work
[3] = test system: PACAP mRNA expression in nucleus trigeminalis caudalis; design: method as in PMID 29387039; details: animal model of migraine; cited from earlier work
MAPK and NFκB = details: intraperitoneally administered; cited from earlier work
[4] = test system: transgenic mouse model of HD; design: method as in PMID 21194001; details: cited from earlier work
[5] = test system: human lymphoma U-937 cells; design: method as in PMID 31316502; details: U-937 cells infected with Staphylococcus aureus; cited from earlier work
hippocampus = test system: hippocampus; design: method as in PMID 22231843; details: systemic administration; cited from earlier work

- Papp % (permeability coefficient compared to KYNA) ([1]; 30 min): 54%
- Papp % (permeability coefficient compared to KYNA) ([1]; 60 min): 74%
- Differences among permeability of KYNA, xanthurenic acid and 39B ([1]; 10 µM): not statistically significant
SMILES: O=C(O)c1[nH]c2c(O)cccc2c(=O)c1CN1CCOCC1 [39B, 8-Hydroxy-3-(Morpholinomethyl)-4-Oxo-1,4-Dihydroquinoline-2-Carboxylic Acid]

- Papp % (permeability coefficient compared to KYNA) ([1]; 30 min): 100%
- Papp % (permeability coefficient compared to KYNA) ([1]; 60 min): 100%
- Differences among permeability of KYNA, xanthurenic acid and 39B ([1]; 10 µM): not statistically significant
SMILES: O=C(O)c1cc(=O)c2ccccc2[nH]1 [KYNA, kynurenic acid]
- Elevated levels of c-fos and glutamate in NTC neurons [2]: abolished
- Nitroglycerin-induced neuronal activation in NTC (antihyperalgesic effect) (NTC): attenuating
- Electrical TRG stimulation-induced PACAP mRNA expression in NTC [3]: decreased
- Overexpression of MAPK and NFκB (MAPK and NFκB): reduced

SMILES: CN(C)CCNC(=O)c1cc(=O)c2ccccc2[nH]1 [SZR-72, N-(2-N,N-dimethylaminoethyl)-4-oxo-1H-quinoline-2-carboxamide]
- Elevated levels of c-fos and glutamate in NTC neurons [2]: abolished
- Nitroglycerin-induced neuronal activation in NTC (antihyperalgesic effect) (NTC): attenuating
- Atrophy of the striatal neurons [4]: completely prevented
- Hypolocomotion [4]: ameliorated
- Lifetime of mice [4]: prolonged
- Electrical TRG stimulation-induced PACAP mRNA expression in NTC [3]: decreased
- Overexpression of MAPK and NFκB (MAPK and NFκB): reduced

- Papp% (permeability coefficient compared to sodium-fluorescein) ([1]; 60 min): 177%
SMILES: CN(C)CCNC(=O)c1nc2ccccc2c(O)c1CN1CCCCC1 [SZR-100]

- Papp% (permeability coefficient compared to sodium-fluorescein) ([1]; 60 min): 131%
SMILES: O=C(NCCN1CCCC1)c1nc2ccccc2c(O)c1CN1CCCCC1 [SZR-101]

SMILES: CN(C)CCNC(=O)c1nc2ccccc2c(O)c1CN1CCOCC1 [SZR-104, N-(2-(dimethylamino)ethyl)-3-(morpholinomethyl)-4-hydroxyquinoline-2-carboxamide]
- TNF-α production [5]: reduced
- mRNA expression of TSG-6 [5]: increased
- Papp % (permeability coefficient compared to KYNA) ([1]; 30 min): 210%
- Papp% (permeability coefficient compared to sodium-fluorescein) ([1]; 60 min): 325%
- Papp % (permeability coefficient compared to KYNA) ([1]; 60 min): 222%
- Permeability compared to other analogues ([1]; 10 µM, 60 min): significantly higher
- Permeability compared to KYNA, xanthurenic acid or 39B ([1]; 10 µM, both at 30 min and 60 min, p < 0.01): significantly higher permeability
- BBB penetration compared to the other derivatives tested [1]: high BBB penetration
- Population spike activity in the hippocampus (hippocampus): decreased
- Protection against pentylenetetrazol-induced epileptiform seizures (hippocampus): provided protection

- Papp% (permeability coefficient compared to sodium-fluorescein) ([1]; 60 min): 319%
- Permeability compared to other analogues ([1]; 10 µM, 60 min): significantly higher
- BBB penetration compared to the other derivatives tested [1]: high BBB penetration
SMILES: O=C(NCCN1CCCC1)c1nc2ccccc2c(O)c1CN1CCOCC1 [SZR-105]
- TNF-α production [5]: reduced
- mRNA expression of TSG-6 [5]: increased

- Papp% (permeability coefficient compared to sodium-fluorescein) ([1]; 60 min): 230%
SMILES: CN(C)CCNC(=O)c1nc2ccccc2c(O)c1CN1CCCC1 [SZR-106]

- Papp% (permeability coefficient compared to sodium-fluorescein) ([1]; 60 min): 156%
SMILES: O=C(NCCN1CCCC1)c1nc2ccccc2c(O)c1CN1CCCC1 [SZR-107]

- Papp % (permeability coefficient compared to KYNA) ([1]; 30 min): 110%
- Papp % (permeability coefficient compared to KYNA) ([1]; 60 min): 89%
- Differences among permeability of KYNA, xanthurenic acid and 39B ([1]; 10 µM): not statistically significant
SMILES: O=C(O)c1cc(O)c2cccc(O)c2n1 [xanthurenic acid]

— article PMC7824826, “SZR-104, a Novel Kynurenic Acid Analogue with High Permeability through the Blood–Brain Barrier” (Pharmaceutics, 2021)
